# Entries after “also recorded” stand apart in the source; their conditions may differ.
# What was measured:
# Format in all cases: cell-based
# [1] = test system: human peripheral blood mononuclear cells (PBMCs); experiment: NanoString mRNA quantification in NECA-treated, anti-CD3/CD28-activated PBMCs; conditions: 0.1 μM, 1 μM, and/or 10 μM NECA vs vehicle-treated control
# Experimental: (§1) RNA purified from normal, healthy human peripheral blood mononuclear cells (PBMCs) treated with 5′-N-ethylcarboxamidoadenosine (NECA) and activated with anti-CD3/CD28 antibody were analyzed by NanoString hybridization-based quantification (NanoString Technologies, Inc.). […] Each dot represents the expression level of a specific gene. Dot shade represents the concentration of NECA used and/or different PBMC donors.
# [2] = test system: human peripheral blood mononuclear cells (PBMCs); experiment: RNA sequencing (RNA-Seq) of NECA-treated, anti-CD3/CD28-activated PBMCs
# Experimental: as §1, with “donors. […] Data were confirmed by RNA sequencing (RNA-Seq).” for “donors.”
# PBMCs = experiment: CXCL5 protein ELISA in culture supernatants of PBMCs treated with NECA +/- CPI-444; conditions: PBMCs from two human donors; two days after anti-CD3/CD28 activation; DMSO vehicle control
# Experimental: Expression of CXCL5 was determined by ELISA 2 days after activation.
# FIGS. 2B and 2C show the response of PBMCs from two different donors to NECA+/−CPI-444 treatment. DMSO was used as vehicle control. […] This control helps establish that the induction of CXCL5 is specific to signaling through adenosine receptors.
# NECA activation of CXCL5 protein expression was evaluated. PBMCs were harvested from two different human donors. […] CPI-444 (Corvus Pharmaceuticals) is an antagonist of the adenosine A2A receptor. CXCL5 protein in the culture supernatants was evaluated by ELISA two days after activation. CXCL5 expression is activated by NECA. […] This establishes that the induction of CXCL5 is specific to signaling through adenosine receptors.
smiles,measurement,setting,value
"CCNC(=O)[C@H]1O[C@@H](n2cnc3c(N)ncnc32)[C@H](O)[C@@H]1O [NECA, 5′-N-ethylcarboxamidoadenosine]",logFC CD14 expression,[1],0.4485
same,logFC CD86 expression,[1],0.3148
same,logFC CLEC5A expression,[1],0.3833
same,logFC CXCL1 expression,[1],0.6909
same,logFC CXCL2 expression,[1],1.093
same,logFC CXCL3 expression,[1],1.101
same,logFC CXCL5 expression,[1],1.338
same,logFC CXCL6 expression,[1],0.6535
same,logFC IL1A expression,[1],0.6367
same,logFC IL1B expression,[1],0.6345
same,logFC IL6 expression,[1],0.7014
same,logFC IL8 expression,[1],0.6411
same,logFC IL23A expression,[1],0.4628
same,logFC IL24 expression,[1],0.5768
same,logFC PLAUR expression,[1],0.5031
same,logFC PPBP expression,[1],0.683
same,logFC PTGS2 expression,[1],0.6892
same,logFC SLC11A1 expression,[1],0.7022
same,logFC TBX21 expression,[1],−0.1238
same,logFC THBS1 expression,[1],0.8703
same,logFC CCL24 expression,[2]; Control (DMSO) vs 0.1 μm NECA,−1.068
same,logFC CD93 expression,[2]; Control (DMSO) vs 0.1 μm NECA,0.9975
same,logFC CSF3 expression,[2]; Control (DMSO) vs 0.1 μm NECA,1.603
same,logFC CXCL2 expression,[2]; Control (DMSO) vs 0.1 μm NECA,1.452
same,logFC CXCL3 expression,[2]; Control (DMSO) vs 0.1 μm NECA,1.694
same,logFC CXCL5 expression,[2]; Control (DMSO) vs 0.1 μm NECA,2.388
same,logFC EHF expression,[2]; Control (DMSO) vs 0.1 μm NECA,−0.2753
same,logFC EML6 expression,[2]; Control (DMSO) vs 0.1 μm NECA,0.2117
same,logFC EPB41L3 expression,[2]; Control (DMSO) vs 0.1 μm NECA,1.183
same,logFC FUT7 expression,[2]; Control (DMSO) vs 0.1 μm NECA,−0.2135
same,logFC HAS1 expression,[2]; Control (DMSO) vs 0.1 μm NECA,2.059
same,logFC IL23A expression,[2]; Control (DMSO) vs 0.1 μm NECA,0.7971
same,logFC INHBA expression,[2]; Control (DMSO) vs 0.1 μm NECA,0.5196
same,logFC KLC4 expression,[2]; Control (DMSO) vs 0.1 μm NECA,0.216
same,logFC LAYN expression,[2]; Control (DMSO) vs 0.1 μm NECA,0.4228
same,logFC MRPL11 expression,[2]; Control (DMSO) vs 0.1 μm NECA,−0.19
same,logFC MS4A7 expression,[2]; Control (DMSO) vs 0.1 μm NECA,0.9319
same,logFC NPR1 expression,[2]; Control (DMSO) vs 0.1 μm NECA,0.7892
same,logFC OST4 expression,[2]; Control (DMSO) vs 0.1 μm NECA,−0.2352
same,logFC PADI2 expression,[2]; Control (DMSO) vs 0.1 μm NECA,0.4802
same,logFC PTGS2 expression,[2]; Control (DMSO) vs 0.1 μm NECA,1.184
same,logFC SLC7A7 expression,[2]; Control (DMSO) vs 0.1 μm NECA,0.5935
same,logFC SPON1 expression,[2]; Control (DMSO) vs 0.1 μm NECA,0.3611
same,logFC ST6GALNAC2 expression,[2]; Control (DMSO) vs 0.1 μm NECA,0.5342
same,logFC SYTL3 expression,[2]; Control (DMSO) vs 0.1 μm NECA,0.2894
same,logFC WDR83OS expression,[2]; Control (DMSO) vs 0.1 μm NECA,−0.2872
same,logFC ZBTB18 expression,[2]; Control (DMSO) vs 0.1 μm NECA,0.2431
same,logFC CCDC60 expression,[2]; Control (DMSO) vs 1 μm NECA,0.07658
same,logFC CD93 expression,[2]; Control (DMSO) vs 1 μm NECA,1.454
same,logFC CSF3 expression,[2]; Control (DMSO) vs 1 μm NECA,2.802
same,logFC CXCL2 expression,[2]; Control (DMSO) vs 1 μm NECA,2.361
same,logFC CXCL3 expression,[2]; Control (DMSO) vs 1 μm NECA,2.573
same,logFC CXCL5 expression,[2]; Control (DMSO) vs 1 μm NECA,3.451
same,logFC EHF expression,[2]; Control (DMSO) vs 1 μm NECA,−0.2522
same,logFC EMR3 expression,[2]; Control (DMSO) vs 1 μm NECA,1.364
same,logFC EPB41L3 expression,[2]; Control (DMSO) vs 1 μm NECA,1.854
same,logFC EREG expression,[2]; Control (DMSO) vs 1 μm NECA,1.89
same,logFC FUT7 expression,[2]; Control (DMSO) vs 1 μm NECA,−0.4158
same,logFC GPR157 expression,[2]; Control (DMSO) vs 1 μm NECA,0.9283
same,logFC HAS1 expression,[2]; Control (DMSO) vs 1 μm NECA,3.238
same,logFC IL23A expression,[2]; Control (DMSO) vs 1 μm NECA,1.363
same,logFC IL24 expression,[2]; Control (DMSO) vs 1 μm NECA,2.876
same,logFC INHBA expression,[2]; Control (DMSO) vs 1 μm NECA,0.9638
same,logFC LAYN expression,[2]; Control (DMSO) vs 1 μm NECA,0.5277
same,logFC MS4A7 expression,[2]; Control (DMSO) vs 1 μm NECA,1.535
same,logFC OST4 expression,[2]; Control (DMSO) vs 1 μm NECA,−0.1747
same,logFC PADI2 expression,[2]; Control (DMSO) vs 1 μm NECA,0.7173
same,logFC PID1 expression,[2]; Control (DMSO) vs 1 μm NECA,1.729
same,logFC PTGS2 expression,[2]; Control (DMSO) vs 1 μm NECA,2.23
same,logFC SLC7A7 expression,[2]; Control (DMSO) vs 1 μm NECA,0.9514
same,logFC SPON1 expression,[2]; Control (DMSO) vs 1 μm NECA,0.5667
same,logFC ST6GALNAC2 expression,[2]; Control (DMSO) vs 1 μm NECA,0.8306
same,logFC TGIF1 expression,[2]; Control (DMSO) vs 1 μm NECA,0.4769
same,logFC ZBTB18 expression,[2]; Control (DMSO) vs 1 μm NECA,0.3385
same,logFC CCNE1 expression,[2]; Control (DMSO) vs 10 μm NECA,−0.4518
same,logFC CD93 expression,[2]; Control (DMSO) vs 10 μm NECA,1.895
same,logFC CD300E expression,[2]; Control (DMSO) vs 10 μm NECA,1.71
same,logFC CSF3 expression,[2]; Control (DMSO) vs 10 μm NECA,3.508
same,logFC CXCL2 expression,[2]; Control (DMSO) vs 10 μm NECA,3.011
same,logFC CXCL3 expression,[2]; Control (DMSO) vs 10 μm NECA,3.106
same,logFC CXCL5 expression,[2]; Control (DMSO) vs 10 μm NECA,3.354
same,logFC DFNA5 expression,[2]; Control (DMSO) vs 10 μm NECA,0.6559
same,logFC ECEL1 expression,[2]; Control (DMSO) vs 10 μm NECA,0.6918
same,logFC EPB41L3 expression,[2]; Control (DMSO) vs 10 μm NECA,2
same,logFC GALM expression,[2]; Control (DMSO) vs 10 μm NECA,−0.3189
same,logFC GBP6 expression,[2]; Control (DMSO) vs 10 μm NECA,−0.8039
same,logFC GPR157 expression,[2]; Control (DMSO) vs 10 μm NECA,1.139
same,logFC HAS1 expression,[2]; Control (DMSO) vs 10 μm NECA,3.807
same,logFC IL5 expression,[2]; Control (DMSO) vs 10 μm NECA,−0.6885
same,logFC IL23A expression,[2]; Control (DMSO) vs 10 μm NECA,1.332
same,logFC INHBA expression,[2]; Control (DMSO) vs 10 μm NECA,1.192
same,logFC LAP3 expression,[2]; Control (DMSO) vs 10 μm NECA,−0.4286
same,logFC LOC100505585 expression,[2]; Control (DMSO) vs 10 μm NECA,0.6639
same,logFC NID1 expression,[2]; Control (DMSO) vs 10 μm NECA,1.087
same,logFC PADI2 expression,[2]; Control (DMSO) vs 10 μm NECA,0.9386
same,logFC PID1 expression,[2]; Control (DMSO) vs 10 μm NECA,2.124
same,logFC PTGS2 expression,[2]; Control (DMSO) vs 10 μm NECA,2.349
same,logFC RHCG expression,[2]; Control (DMSO) vs 10 μm NECA,0.5767
same,logFC SLC7A7 expression,[2]; Control (DMSO) vs 10 μm NECA,0.9134
same,logFC SPON1 expression,[2]; Control (DMSO) vs 10 μm NECA,0.568
same,logFC ST6GALNAC2 expression,[2]; Control (DMSO) vs 10 μm NECA,0.876
same,"CXCL5 protein in culture supernatants (ELISA), effect of NECA",PBMCs,activated; also recorded: dose-dependent increase in CXCL5

# Source: US12174192B2, “Methods for detecting and treating cancers having adenosine pathway activation” (Corvus Pharmaceuticals, Inc., priority 2018, dated 2024)
